One experiment has as its system E. coli SK 12140. Kind of experiment: in vitro MIC testing. In kind it is cell-based. To be noted: Escherichia coli, SK12140, two values given. Here is the method: (§1) The compounds of Formula I have exceptional antibacterial activity against both Gram-positive and Gram-negative organisms. Minimum inhibitory concentrations (MIC's) range from 0.1 to >200 μg./ml. in in vitro testing. Test results for the compound 7-D-mandelamido-3-[1-(2-ureidoethyl)tetrazol-5-ylthiomethyl]-3-cephem-4-carboxylic acid are given below: […]

The next experiment deals with Kleb. pneumo. SK 1200. Kind of experiment: in vitro MIC testing. In kind it is cell-based. Particulars: two values given. Here is the method:
as §1

The test system of experiment [1] is Serratia Marc. ATCC 13880. Kind of experiment: in vitro MIC testing. In kind it is cell-based. Particulars: ATCC13880, two values given. Here is the method: as §1
In a further experiment the test system is S. aureus SK 23390. Kind of experiment: in vitro MIC testing. To be noted: Staphylococcus aureus, SK23390, two values given. In kind it is cell-based. Here is the method:
as §1

The subject of a further experiment is Strep. faecalis HH 34358. Kind of experiment: in vitro MIC testing. In kind it is cell-based. Particulars: Enterococcus faecalis, HH34358, two values given. Here is the method: as §1
The subject of a further experiment is Kleb. pneumo. SK 4200. Kind of experiment: in vitro MIC testing. It counts as cell-based. Particulars: two values given. Here is the method:
as §1

In another experiment the test system is S. aureus HH 127. Kind of experiment: in vitro MIC testing. It counts as cell-based. Particulars: two values given. Here is the method: as §1
A further experiment relates to Pseudo. aerug. HH 63. Kind of experiment: in vitro MIC testing. In kind it is cell-based. To be noted: two values given. Here is the method:
as §1

In a further experiment the test system is E. coli HH 33779. Kind of experiment: in vitro MIC testing. In kind it is cell-based. Particulars: Escherichia coli, HH33779, two values given. Here is the method:
as §1

In another experiment the test system is S. villaluz SK 70390. Kind of experiment: in vitro MIC testing. It counts as cell-based. To be noted: two values given. Here is the method:
as §1

The next experiment deals with Entero. cloacae HH 31254. Kind of experiment: in vitro MIC testing. It counts as cell-based. To be noted: Enterobacter cloacae, HH31254, two values given. Here is the method: as §1
The subject of the next experiment is Proteus morgani 179. Kind of experiment: in vitro MIC testing. It counts as cell-based. Particulars: two values given. Here is the method: as §1
The subject of a further experiment is Shigella HH 117. Kind of experiment: in vitro MIC testing. Particulars: two values given. In kind it is cell-based. Here is the method:
as §1

The next experiment deals with Kleb. pneumo. 4200. Kind of experiment: in vivo mouse protection test. Here is the method: (§2) 4200 upon subcutaneous injection; and 17.5 mg./kg. against E. coli 12140 and 25.5 mg./kg. against Kleb. pneumo. 4200 upon oral administration.
In another experiment the test system is E. coli 12140. Kind of experiment: in vivo mouse protection test. Particulars: Escherichia coli. Here is the method: as §2

SMILES strings stand for the structures. Values after ≈ are worked out from the molar mass of the structure shown. Like-named read-outs stand apart in the source and are kept apart here.

From patent US4025626A, “7-Acyl-3-(ureidoalkyl substituted tetrazolylthiomethyl)-cephalosporins” (SmithKline Corporation, priority 1975, dated 1977) come the findings set out here.

What is called MIC is the smallest concentration in the dilution series that meets the test's criterion for growth inhibition. As usually defined, the ED50 is the dose that gives a 50% effect, or the effect in half of the subjects. Read a high ED50 as a need for a large dose.

With `NC(=O)NCCn1nnnc1SCC1=C(C(=O)O)N2C(=O)C(NC(=O)[C@H](O)c3ccccc3)[C@H]2SC1` (stereo partly drawn) [7-D-Mandelamido-3-[1-(2-ureidoethyl)tetrazol-5-ylthiomethyl]-3-cephem-4-carboxylic acid], the MIC against E. coli SK 12140 was found to be 0.8 µg/mL (≈ 1.5 µM); with Kleb. pneumo. SK 1200 it was 0.4 µg/mL (≈ 0.748 µM); in [1], 25 µg/mL (≈ 46.8 µM); with S. aureus SK 23390, 0.4 µg/mL (≈ 0.748 µM); against Strep. faecalis HH 34358 it was 25 µg/mL (≈ 46.8 µM); in the experiment on Kleb. pneumo. SK 4200, 0.8 µg/mL (≈ 1.5 µM). In addition, the MIC is 1.6 µg/mL (≈ 2.99 µM) in the experiment with S. aureus HH 127 (S. aureus HH 127); 3.1 µg/mL (≈ 5.8 µM) in the experiment on S. aureus HH 127 (Staphylococcus aureus, HH127, S. aureus HH 127, read-out: MIC); greater than 200 µg/mL against Pseudo. aerug. HH 63; 1.6 µg/mL (≈ 2.99 µM) in the experiment with E. coli HH 33779; 25 µg/mL (≈ 46.8 µM) against S. villaluz SK 70390; 0.8 µg/mL (≈ 1.5 µM) against Entero. cloacae HH 31254. Also, the MIC in the experiment with Proteus morgani 179 came to 0.8 µg/mL (≈ 1.5 µM); against Shigella HH 117 (Shigella HH 117), 0.2 µg/mL (≈ 0.374 µM); in the experiment with Shigella HH 117 (Shigella, HH117, Shigella HH 117, read-out: MIC), 0.1 µg/mL (≈ 0.187 µM). Also, the ED50 amounted to 25.5 mg/kg in the experiment on Kleb. pneumo. 4200 (Kleb. pneumo. 4200, oral administration); 1.34 mg/kg with Kleb. pneumo. 4200 (sc, Kleb. pneumo. 4200, subcutaneous injection); 17.5 mg/kg in the experiment on E. coli 12140 (E. coli 12140, oral administration); 0.86 mg/kg in the experiment on E. coli 12140 (sc, E. coli 12140, subcutaneous injection).
